# In ChEMBL document CHEMBL3885861, “Open TG-GATES”:
# Organism: Rattus norvegicus
# Experiment: Open TG-GATES - Regimen: Single
# Assay type: toxicity, organism-based, Sprague-Dawley
# Parameters: regimen Single, gender Male, age 6 weeks
# Details: in vivo, po, 24 h, route gavage; for Bas / Eos / Hb / Ht / Lym / MCH / MCHC / MCV / Mono / Neu / Plat / RBC / Ret / WBC: tissue Blood; for KIDNEY_L / KIDNEY_R / KIDNEY_TOTAL: tissue Kidney; for LIVER: tissue Liver; for A/G / ALP / ALT / AST / BUN / CRE / Ca / Cl / DBIL / GLC / IP / K / LDH / Na / PL / RALB / TBIL / TC / TG / TP / gamma-GTP: tissue Plasma
smiles,measurement,setting,value
O=NN1CCOCC1 [N-NITROSOMORPHOLINE],TERMINAL_BW,"0 mg/kg, dose level Control",228.1 g
same,Bas,"0 mg/kg, dose level Control",0%
same,Eos,"0 mg/kg, dose level Control",0.6%
same,Hb,"0 mg/kg, dose level Control",12.5 g/dL
same,Ht,"0 mg/kg, dose level Control",38.4%
same,Lym,"0 mg/kg, dose level Control",80%
same,MCH,"0 mg/kg, dose level Control",20.2 pg
same,MCHC,"0 mg/kg, dose level Control",32.5%
same,MCV,"0 mg/kg, dose level Control",62.2 fL
same,Mono,"0 mg/kg, dose level Control",2.2%
same,Neu,"0 mg/kg, dose level Control",16.4%
same,Plat,"0 mg/kg, dose level Control",122.3 x10_4/uL
same,RBC,"0 mg/kg, dose level Control",619.4 x10_4/ul
same,Ret,"0 mg/kg, dose level Control",8%
same,WBC,"0 mg/kg, dose level Control",73.5 x10_2/uL
same,KIDNEY_L,"0 mg/kg, dose level Control",1 g
same,KIDNEY_R,"0 mg/kg, dose level Control",1 g
same,KIDNEY_TOTAL,"0 mg/kg, dose level Control",2.1 g
same,LIVER,"0 mg/kg, dose level Control",10.8 g
same,A/G,"0 mg/kg, dose level Control",1
same,ALP,"0 mg/kg, dose level Control",1437.2 IU/L
same,ALT,"0 mg/kg, dose level Control",38.6 IU/L
same,AST,"0 mg/kg, dose level Control",65.2 IU/L
same,BUN,"0 mg/kg, dose level Control",15.9 mg/dL
same,CRE,"0 mg/kg, dose level Control",0.2 mg/dL
same,Ca,"0 mg/kg, dose level Control",10.8 mg/dL
same,Cl,"0 mg/kg, dose level Control",103.3 meq/L
same,DBIL,"0 mg/kg, dose level Control",0 mg/dL
same,GLC,"0 mg/kg, dose level Control",188 mg/dL
same,IP,"0 mg/kg, dose level Control",6.6 mg/dL
same,K,"0 mg/kg, dose level Control",4.4 meq/L
same,LDH,"0 mg/kg, dose level Control",152.8 IU/L
same,Na,"0 mg/kg, dose level Control",141.3 meq/L
same,PL,"0 mg/kg, dose level Control",162.4 mg/dL
same,RALB,"0 mg/kg, dose level Control",2.9 g/dL
same,TBIL,"0 mg/kg, dose level Control",0.006 mg/dL
same,TC,"0 mg/kg, dose level Control",81.8 mg/dL
same,TG,"0 mg/kg, dose level Control",144.6 mg/dL
same,TP,"0 mg/kg, dose level Control",5.7 g/dL
same,gamma-GTP,"0 mg/kg, dose level Control",1 IU/L
same,TERMINAL_BW,"100 mg/kg, dose level Low",215.1 g
same,Bas,"100 mg/kg, dose level Low",0%
same,Eos,"100 mg/kg, dose level Low",0.4%
same,Hb,"100 mg/kg, dose level Low",13.6 g/dL
same,Ht,"100 mg/kg, dose level Low",41.7%
same,Lym,"100 mg/kg, dose level Low",66.4%
same,MCH,"100 mg/kg, dose level Low",20.4 pg
same,MCHC,"100 mg/kg, dose level Low",32.7%
same,MCV,"100 mg/kg, dose level Low",62.4 fL
same,Mono,"100 mg/kg, dose level Low",3.8%
same,Neu,"100 mg/kg, dose level Low",27.8%
same,Plat,"100 mg/kg, dose level Low",110.9 x10_4/uL
same,RBC,"100 mg/kg, dose level Low",669.4 x10_4/ul
same,Ret,"100 mg/kg, dose level Low",7.6%
same,WBC,"100 mg/kg, dose level Low",88.5 x10_2/uL
same,KIDNEY_L,"100 mg/kg, dose level Low",1 g
same,KIDNEY_R,"100 mg/kg, dose level Low",1 g
same,KIDNEY_TOTAL,"100 mg/kg, dose level Low",2 g
same,LIVER,"100 mg/kg, dose level Low",9.2 g
same,A/G,"100 mg/kg, dose level Low",1.1
same,ALP,"100 mg/kg, dose level Low",1723.6 IU/L
same,ALT,"100 mg/kg, dose level Low",134.6 IU/L
same,AST,"100 mg/kg, dose level Low",347.6 IU/L
same,BUN,"100 mg/kg, dose level Low",18.8 mg/dL
same,CRE,"100 mg/kg, dose level Low",0.2 mg/dL
same,Ca,"100 mg/kg, dose level Low",10.8 mg/dL
same,Cl,"100 mg/kg, dose level Low",102 meq/L
same,DBIL,"100 mg/kg, dose level Low",0.046 mg/dL
same,GLC,"100 mg/kg, dose level Low",164.2 mg/dL
same,IP,"100 mg/kg, dose level Low",8 mg/dL
same,K,"100 mg/kg, dose level Low",4.3 meq/L
same,LDH,"100 mg/kg, dose level Low",883.2 IU/L
same,Na,"100 mg/kg, dose level Low",140.8 meq/L
same,PL,"100 mg/kg, dose level Low",141.4 mg/dL
same,RALB,"100 mg/kg, dose level Low",2.8 g/dL
same,TBIL,"100 mg/kg, dose level Low",0.084 mg/dL
same,TC,"100 mg/kg, dose level Low",73.4 mg/dL
same,TG,"100 mg/kg, dose level Low",34.1 mg/dL
same,TP,"100 mg/kg, dose level Low",5.4 g/dL
same,gamma-GTP,"100 mg/kg, dose level Low",0.9 IU/L
same,TERMINAL_BW,"300 mg/kg, dose level Middle",212.5 g
same,Bas,"300 mg/kg, dose level Middle",0%
same,Eos,"300 mg/kg, dose level Middle",0.6%
same,Hb,"300 mg/kg, dose level Middle",14.2 g/dL
same,Ht,"300 mg/kg, dose level Middle",43.1%
same,Lym,"300 mg/kg, dose level Middle",59.2%
same,MCH,"300 mg/kg, dose level Middle",20.9 pg
same,MCHC,"300 mg/kg, dose level Middle",32.9%
same,MCV,"300 mg/kg, dose level Middle",63.4 fL
same,Mono,"300 mg/kg, dose level Middle",3.2%
same,Neu,"300 mg/kg, dose level Middle",36.2%
same,Plat,"300 mg/kg, dose level Middle",115.8 x10_4/uL
same,RBC,"300 mg/kg, dose level Middle",680.2 x10_4/ul
same,Ret,"300 mg/kg, dose level Middle",7.6%
same,WBC,"300 mg/kg, dose level Middle",67.6 x10_2/uL
same,KIDNEY_L,"300 mg/kg, dose level Middle",1 g
same,KIDNEY_R,"300 mg/kg, dose level Middle",1 g
same,KIDNEY_TOTAL,"300 mg/kg, dose level Middle",1.9 g
same,LIVER,"300 mg/kg, dose level Middle",8.7 g
same,A/G,"300 mg/kg, dose level Middle",1.2
same,ALP,"300 mg/kg, dose level Middle",1483.8 IU/L
same,ALT,"300 mg/kg, dose level Middle",94.6 IU/L
same,AST,"300 mg/kg, dose level Middle",245.8 IU/L
same,BUN,"300 mg/kg, dose level Middle",15 mg/dL
same,CRE,"300 mg/kg, dose level Middle",0.2 mg/dL
same,Ca,"300 mg/kg, dose level Middle",10.7 mg/dL
same,Cl,"300 mg/kg, dose level Middle",101.9 meq/L
same,DBIL,"300 mg/kg, dose level Middle",0.038 mg/dL
same,GLC,"300 mg/kg, dose level Middle",172.6 mg/dL
same,IP,"300 mg/kg, dose level Middle",8.1 mg/dL
same,K,"300 mg/kg, dose level Middle",4.1 meq/L
same,LDH,"300 mg/kg, dose level Middle",426 IU/L
same,Na,"300 mg/kg, dose level Middle",140.4 meq/L
same,PL,"300 mg/kg, dose level Middle",115.4 mg/dL
same,RALB,"300 mg/kg, dose level Middle",3 g/dL
same,TBIL,"300 mg/kg, dose level Middle",0.064 mg/dL
same,TC,"300 mg/kg, dose level Middle",60.8 mg/dL
same,TG,"300 mg/kg, dose level Middle",31.5 mg/dL
same,TP,"300 mg/kg, dose level Middle",5.5 g/dL
same,gamma-GTP,"300 mg/kg, dose level Middle",1 IU/L
same,TERMINAL_BW,"600 mg/kg, dose level High",197.8 g
same,Bas,"600 mg/kg, dose level High",0%
same,Eos,"600 mg/kg, dose level High",1%
same,Hb,"600 mg/kg, dose level High",14.9 g/dL
same,Ht,"600 mg/kg, dose level High",44.9%
same,Lym,"600 mg/kg, dose level High",35%
same,MCH,"600 mg/kg, dose level High",20.6 pg
same,MCHC,"600 mg/kg, dose level High",33.3%
same,MCV,"600 mg/kg, dose level High",61.9 fL
same,Mono,"600 mg/kg, dose level High",2.4%
same,Neu,"600 mg/kg, dose level High",61.8%
same,Plat,"600 mg/kg, dose level High",103.6 x10_4/uL
same,RBC,"600 mg/kg, dose level High",727.4 x10_4/ul
same,Ret,"600 mg/kg, dose level High",7.5%
same,WBC,"600 mg/kg, dose level High",51.6 x10_2/uL
same,KIDNEY_L,"600 mg/kg, dose level High",0.9 g
same,KIDNEY_R,"600 mg/kg, dose level High",0.9 g
same,KIDNEY_TOTAL,"600 mg/kg, dose level High",1.8 g
same,LIVER,"600 mg/kg, dose level High",7.9 g
same,A/G,"600 mg/kg, dose level High",1.1
same,ALP,"600 mg/kg, dose level High",1527.2 IU/L
same,ALT,"600 mg/kg, dose level High",100.4 IU/L
same,AST,"600 mg/kg, dose level High",304 IU/L
same,BUN,"600 mg/kg, dose level High",13.9 mg/dL
same,CRE,"600 mg/kg, dose level High",0.1 mg/dL
same,Ca,"600 mg/kg, dose level High",10.5 mg/dL
same,Cl,"600 mg/kg, dose level High",101.5 meq/L
same,DBIL,"600 mg/kg, dose level High",0.022 mg/dL
same,GLC,"600 mg/kg, dose level High",174.4 mg/dL
same,IP,"600 mg/kg, dose level High",8 mg/dL
same,K,"600 mg/kg, dose level High",4.2 meq/L
same,LDH,"600 mg/kg, dose level High",476.8 IU/L
same,Na,"600 mg/kg, dose level High",139.4 meq/L
same,PL,"600 mg/kg, dose level High",105 mg/dL
same,RALB,"600 mg/kg, dose level High",3.1 g/dL
same,TBIL,"600 mg/kg, dose level High",0.044 mg/dL
same,TC,"600 mg/kg, dose level High",56.2 mg/dL
same,TG,"600 mg/kg, dose level High",25.4 mg/dL
same,TP,"600 mg/kg, dose level High",5.7 g/dL
same,gamma-GTP,"600 mg/kg, dose level High",1.1 IU/L
